Measured values taken from US8362031B2, “Lonidamine analogues and treatment of polycystic kidney disease” (University of Kansas, priority 2004, dated 2013).
Entries after “also recorded” stand apart in the source; their conditions may differ.

How the values were obtained:
[1] = system: CFTR-mediated chloride transport; assay: Forskolin-induced short-circuit current in ADPKD cell monolayers; assay type: cell-based, human
Procedure: To determine if the ability of GMZ to inhibit cAMP-stimulated tubule expansion was due to inhibition of CFTR-mediated chloride transport, forskolin-induced short-circuit current was measured with cyst-lining epithelial cells derived from two human ADPKD (autosomal dominant PKD) kidneys. FSK is an adenylyl cyclase agonist, which increases the levels of intracellular cAMP. The cAMP then opens the CFTR chloride channel. […] The bars in FIG. 12G show the results for the three treatments. 1 microM gamendazole applied to the apical side of the cell monolayer was effective in inhibiting greater than 40 percent of the forskolin-stimulated transepithelial chloride transport.

[2] = system: Salmonella Typhimurium TA 100; assay: Ames test for mutagenicity (plate assay, colony count); details: 48 hours at 37° C.
rats = assay: Toxicology: organs sectioned and examined after dosing; assay type: in vivo

Row | Compound | inhibition at 1 µM ([1]; Homo sapiens, 1 microM applied to the apical side, 10 microM forskolin, read-out: inhibition of the forskolin-stimulated transepithelial chloride transport) [%] | forskolin-induced Cl-secretion (short-circuit current) ([1]; human ADPKD cells, in the presence of benzamil) | Concentration needed to inhibit CFTR-mediated chloride channel activity, compared with lonidamine ([1]; human cyst epithelial cells (ADPKD cells)) | Ames test (+)S9 0.1 mg/pl. ([2]; (+)S9 mix, 0.1 mg/pl.) | Ames test (+)S9 1 mg/pl. ([2]; (+)S9 mix, 1 mg/pl.) | Ames test (+)S9 10 mg/pl. ([2]; (+)S9 mix, 10 mg/pl.) | Ames test (−)S9 0.1 mg/pl. ([2]; (−)S9 mix, 0.1 mg/pl.) | Ames test (−)S9 1 mg/pl. ([2]; (−)S9 mix, 1 mg/pl.) | Ames test (−)S9 10 mg/pl. ([2]; (−)S9 mix, 10 mg/pl.) | Toxicology: liver, lung, pancreas, spleen, heart and kidney (histology) (rats; 6 mg/kg, follow-up experiment, findings per animal) | Toxicology: liver, lung, pancreas, spleen, heart and kidney (histology) (rats; 12 mg/kg, follow-up experiment, findings per animal) | Toxicology: liver, lung, pancreas, spleen, heart and kidney (histology) (rats; 25 mg/kg, two animals examined, findings per animal) | Toxicology: liver, lung, pancreas, spleen, heart and kidney (histology) (rats; 200 mg/kg, two animals examined, findings per animal) | Toxicology: liver, lung, pancreas, spleen, heart and kidney (histology) (rats; oral 1.5 mg/kg, two animals, corn oil) | Toxicology: liver, lung, pancreas, spleen, heart and kidney (histology) (rats; oral 1.5 mg/kg, two animals, corn oil, 1.5 mg/kg) | Toxicology: liver, lung, pancreas, spleen, heart and kidney (histology) (rats; oral 6 mg/kg, 3 mg/kg, 1 mg/kg and 0.5 mg/kg, two animals from each dose level, corn oil)
1 | O=C(O)CCc1nn(Cc2ccc(Cl)cc2Cl)c2cc(C(F)(F)F)ccc12 [GMZ, 3-[1-(2,4-dichlorobenzyl)-6-trifluoromethyl-1H-indazol-3-yl]-propionic acid] | > 40 | almost completely block | at much lower concentration; also recorded: effective at lower doses than was Lonidamine itself |  |  |  |  |  |  |  |  |  |  |  |  | 
2 | O=C(O)/C=C/c1nn(Cc2ccc(Cl)cc2Cl)c2cc(C(F)(F)F)ccc12 [RC-MC-110, trans 3-[1-(2,4-dichlorobenzyl)-6-trifluoromethyl-1H-indazol-3-yl]-acrylic acid] |  |  |  | Pass | Pass | Pass | Pass | Pass | Pass | The liver did have isolated, scattered, small necrotic patches, resembling what is often found in subacute hepatic necrosis | The liver did have isolated, scattered, small necrotic patches, resembling what is often found in subacute hepatic necrosis; also recorded: The liver contained small, patchy areas of necrosis resembling what is often described for subacute hepatic necrosis; also recorded: The lungs also had multiple, small hemorrhagic areas around the respiratory and terminal bronchioles | liver, lung, pancreas, spleen, heart and kidney all appear within normal limits | liver, lung, pancreas, spleen, heart and kidney all appear within normal limits | the liver showed a small number of randomly scattered, small necrotic patches, but was otherwise normal | The other animal receiving 1.5 mg/kg appeared normal | liver, lung, pancreas, spleen, heart and kidney all appeared within normal limits
